# Assay results as given in PMC7367283, “A PIP2 substitute mediates voltage sensor-pore coupling in KCNQ activation” (Communications Biology, 2020).
# Where “and” joins values, the source holds several entries; their conditions need not be identical. Equal values may be shown once.
# What was measured:
# Assay in all cases: Two-electrode voltage clamp of mutant KCNQ1 in Xenopus oocytes
# Assay type in all cases: cell-based
# KCNQ1 K354A = KCNQ1 K354A (Homo sapiens, UniProt P51787, K354A)
# From the text: (§1) In a previous study, mutation of residues in the predicted PIP2-binding site reduced KCNQ1 currents. CP1 modifies voltage-dependent activation of KCNQ1 channels by shifting the voltage dependence of channel opening, measured as the voltage dependence of the conductance (G–V) relationship, to more negative voltages (Fig. 1c) among other characteristics (see below). We made mutations to the residues around the CP1-interacting pocket as indicated by molecular docking (Fig. 1b), and examined the effects of the mutations on the CP1-induced shift of the G–V relationship. The mutations of the KCNQ1 residues that interact with CP1 in docking simulations reduced the shift of the G–V relationship (Fig. 1c, d), supporting the interaction of these residues with CP1.
# (§2) Complementary DNA (cDNA) encoding human KCNQ1 (UniProtKB/Swiss‐Prot under accession no. P51787), KCNQ2 (O43526), KCNQ3 (O43525), KCNE1 (P15382), Kir1.1 (P48048), hERG (Q12809), KV4.2 (Q63881), NaV1.5 (Q14524), NaV β1 (Q07699), CaV1.2 (Q13936), CaV β1a (Q02641), CaV α2/δ1 (P54289), and HCN4 (Q9Y3Q4) were subcloned into oocyte expression vectors, respectively. Site-directed mutations of the KCNQ1 channel were all produced by overlap extension polymerase chain reaction (PCR) with high-fidelity Pfu polymerase (Stratagene, CA). The presence of the desired mutation was verified by sequencing the PCR-amplified regions. All the primer sequences used in this study are available in Supplementary Table 1. The complementary RNA (cRNA) of all these channels and mutations was transcribed in vitro with the T3, T7, or SP6 polymerase mMessage mMachine kit (Invitrogen, Thermo Fisher Scientific, MO).
# (§3) The use of Xenopus laevis to obtain oocytes was approved by the Washington University Animal Studies Committee (protocol #20190030). Oocytes were manually dispersed and digested with collagenase (0.5 mg/ml, Sigma-Aldrich, Saint Louis, MO) to remove the follicle cell layer. Stage V or VI oocytes were selected and injected with cRNAs (9.2 ng) of channel or mutations. Especially, to characterize IKs, a mix of cRNAs at a molar ratio 4:1 (KCNQ1:KCNE1) was injected. For KCNQ2/KCNQ3, the molar ratio was 1:1 (KCNQ2:KCNQ3). For sodium channels, a 3:1 molar ratio (β1:NaV1.5) and for calcium channels a weight ratio 1:1:1 (β1:α2/δ1:CaV1.2) was injected, respectively. Injected oocytes were incubated in ND96 solution containing (in mM) 96 NaCl, 2 KCl, 1.8 CaCl2, 1 MgCl2, and 5 HEPES, pH 7.6, supplemented with 2.5 mM Na pyruvate and 1% penicillin–streptomycin, at 18 °C for 3–7 days before recording.
# (§4) The whole-oocyte ionic currents were recorded with a GeneClamp 500B amplifier (Axon Instruments, CA) or iTEV90 amplifier (HEKA, Germany) and then sampled at 1 kHz and low-pass-filtered at 2 kHz. The Patchmaster software (HEKA, Germany) was used to acquire data. The Kir1.1 current was recorded with a high K^+ bath solution containing (in mM) 96 KCl, 4 NaCl, 1 CaCl2, 2 MgCl2, and 10 HEPES, pH 7.3–7.4. The HCN4 current was recorded in ND66 solution containing (in mM) 66 NaCl, 32 KCl, 1.8 CaCl2, 1 MgCl2, and 5 HEPES, pH 7.6. All the other potassium channels were recorded in ND96 solution. The currents of CaV1.2 channel were recorded in 40 mM Ba^2+ bath solution containing (in mM) 40 Ba(OH)2, 50 TEA-OH, 2 KOH, and 5 HEPES, adjusted to pH 7.4 with methanesulfonic acid. CP1 (DISODIUM 5-BROMO-2-[9-CHLORO-3-(SULFONATOOXY) NAPHTHO [1,2-B] THIEN-2-YL]-1H-INDOL-3-YL SULFATE, Sigma-Aldrich, MO) and Chromanol 293B (Sigma-Aldrich, MO) were dissolved in bath solutions. All the chemicals were purchased from Sigma-Aldrich. To measure the I–V relations of the Kir1.1 channel, the test voltage was set from −100 to +60 mV for 1 s with 20-mV increments. The test pulses were stepped from a holding potential of 0 mV and then stepped back to 0 mV. The HCN4 currents were recorded by a test pulse between −30 and −140 mV in 10-mV step from a holding potential of −30 mV. […]
# KCNQ1 K358A = KCNQ1 K358A (Homo sapiens, UniProt P51787, K358A)
# From the text: as §1, §2, §3, §4
# KCNQ1 Q359A = KCNQ1 Q359A (Homo sapiens, UniProt P51787, Q359A); conditions: 10 µM CP1, individual oocytes
# From the text: as §1, §2, §3, §4
# [1] = biological target: KCNQ1 R249A/S253A/K354A/K358A (Homo sapiens, UniProt P51787, K354A/K358A/R249A/S253A)
# From the text: as §1, §2, §3, §4
# KCNQ1 W248R = KCNQ1 W248R (Homo sapiens, UniProt P51787, W248R); conditions: 10 µM CP1, individual oocytes
# From the text: as §1, §2, §3, §4
compound,measurement,setting,value
"O=S(=O)([O-])Oc1c(-c2sc3c(ccc4cccc(Cl)c43)c2OS(=O)(=O)[O-])[nH]c2ccc(Br)cc12.[Na+].[Na+] [CP1, DISODIUM 5-BROMO-2-[9-CHLORO-3-(SULFONATOOXY) NAPHTHO [1,2-B] THIEN-2-YL]-1H-INDOL-3-YL SULFATE]",G/Gmax,"KCNQ1 K354A; 10 µM CP1, -10 mV",1.0000
same,G/Gmax,"KCNQ1 K354A; 10 µM CP1, -20 mV",0.9896
same,G/Gmax,"KCNQ1 K354A; 10 µM CP1, -30 mV",0.9492
same,G/Gmax,"KCNQ1 K354A; 10 µM CP1, -40 mV",0.8838
same,G/Gmax,"KCNQ1 K354A; 10 µM CP1, -50 mV",0.7639
same,G/Gmax,"KCNQ1 K354A; 10 µM CP1, -60 mV",0.6020
same,G/Gmax,"KCNQ1 K354A; 10 µM CP1, -70 mV",0.4417
same,G/Gmax,"KCNQ1 K354A; 10 µM CP1, -80 mV",0.3190
same,G/Gmax,"KCNQ1 K354A; 10 µM CP1, -90 mV",0.2082
same,G/Gmax,"KCNQ1 K354A; 10 µM CP1, -100 mV",0.1212
same,G/Gmax,"KCNQ1 K354A; 10 µM CP1, -110 mV",0.0566
same,G/Gmax,"KCNQ1 K354A; 10 µM CP1, -120 mV",0.0000
same,∆V1/2,"KCNQ1 K354A; 10 µM CP1, individual oocytes",42.6379 mV and 47.4781 mV and 37.0916 mV and 51.9279 mV and 26.7588 mV
same,G/Gmax,"KCNQ1 K358A; 10 µM CP1, 0 mV",0.9554
same,G/Gmax,"KCNQ1 K358A; 10 µM CP1, 10 mV",0.9870
same,G/Gmax,"KCNQ1 K358A; 10 µM CP1, 20 mV",1.0000
same,G/Gmax,"KCNQ1 K358A; 10 µM CP1, -10 mV",0.8985
same,G/Gmax,"KCNQ1 K358A; 10 µM CP1, -20 mV",0.8248
same,G/Gmax,"KCNQ1 K358A; 10 µM CP1, -30 mV",0.7348
same,G/Gmax,"KCNQ1 K358A; 10 µM CP1, -40 mV",0.6300
same,G/Gmax,"KCNQ1 K358A; 10 µM CP1, -50 mV",0.5260
same,G/Gmax,"KCNQ1 K358A; 10 µM CP1, -60 mV",0.4207
same,G/Gmax,"KCNQ1 K358A; 10 µM CP1, -70 mV",0.3286
same,G/Gmax,"KCNQ1 K358A; 10 µM CP1, -80 mV",0.2595
same,G/Gmax,"KCNQ1 K358A; 10 µM CP1, -90 mV",0.1953
same,G/Gmax,"KCNQ1 K358A; 10 µM CP1, -100 mV",0.1209
same,G/Gmax,"KCNQ1 K358A; 10 µM CP1, -110 mV",0.0580
same,G/Gmax,"KCNQ1 K358A; 10 µM CP1, -120 mV",0.0105
same,∆V1/2,"KCNQ1 K358A; 10 µM CP1, individual oocytes",15.3181 mV and 41.4752 mV and 28.1195 mV and 31.8534 mV and 36.2122 mV and 21.5083 mV and 28.8875 mV
same,∆V1/2,KCNQ1 Q359A,92.2901 mV and 78.8586 mV and 79.8593 mV and 57.9843 mV
same,G/Gmax,"[1]; 10 µM CP1, 0 mV",0.6125
same,G/Gmax,"[1]; 10 µM CP1, 10 mV",0.7412
same,G/Gmax,"[1]; 10 µM CP1, 20 mV",0.8671
same,G/Gmax,"[1]; 10 µM CP1, 30 mV",0.9470
same,G/Gmax,"[1]; 10 µM CP1, 40 mV",1.0000
same,G/Gmax,"[1]; 10 µM CP1, -10 mV",0.4658
same,G/Gmax,"[1]; 10 µM CP1, -20 mV",0.3584
same,G/Gmax,"[1]; 10 µM CP1, -30 mV",0.2410
same,G/Gmax,"[1]; 10 µM CP1, -40 mV",0.1854
same,G/Gmax,"[1]; 10 µM CP1, -50 mV",0.1254
same,G/Gmax,"[1]; 10 µM CP1, -60 mV",0.1039
same,G/Gmax,"[1]; 10 µM CP1, -70 mV",0.0777
same,G/Gmax,"[1]; 10 µM CP1, -80 mV",0.0665
same,G/Gmax,"[1]; 10 µM CP1, -90 mV",0.0440
same,G/Gmax,"[1]; 10 µM CP1, -100 mV",0.0354
same,G/Gmax,"[1]; 10 µM CP1, -110 mV",0.0175
same,G/Gmax,"[1]; 10 µM CP1, -120 mV",0.0015
same,∆V1/2,"[1]; 10 µM CP1, individual oocytes",21.6716 mV and 20.4143 mV and 21.6154 mV and 29.7699 mV
same,∆V1/2,KCNQ1 W248R,27.0173 mV and 42.5898 mV and 38.6048 mV
